# Source: patent US8772504B2, “Substituted benzoxazole, benzimidazole, oxazolopyridine and imidazopyridine derivatives as gamma secretase modulators” (Janssen Pharmaceuticals, Inc., priority 2009, dated 2014)
# How the values were obtained:
# Aβ42 [1] = assay: Screening for γ-secretase-modulating activity, Method 1: Aβ42 sandwich ELISA on SKNBE2 cell media; format: cell-based; details: SKNBE2 cells carrying APP 695 wild type
# How it was run: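 SKNBE2 cells expressing wild-type APP695 were treated with compound for 18 h in Ultraculture/1% glutamine. Secreted Aβ42 was quantified by sandwich ELISA (C-terminal capture, biotinylated 3D6, TMB, 450 nm), with WST-1 used as a toxicity check. IC50 was derived from 4-parameter fits of % inhibition or % of untreated control.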
# Aβtotal [2] = assay: Screening for γ-secretase-modulating activity, Method 1: Aβtotal sandwich ELISA on SKNBE2 cell media; format: cell-based; details: SKNBE2 cells carrying APP 695 wild type
# How it was run: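 SKNBE2 cells expressing wild-type APP 695 were treated with compound for 18 hours. Aβtotal in the medium was measured by sandwich ELISA (6E10 capture, biotinylated 4G8 detection, fluorogenic peroxidase read-out). IC50 came from a 4-parameter fit of % inhibition with top/bottom fixed at 100/0 and Hill slope 1, or as averaged IC50 from % of untreated control.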
# Aβ42 [3] = assay: In vivo efficacy Method 1: brain soluble Aβ42 by ELISA; design: species or system mouse; details: Table 4a, single oral dose, overnight fasted animals, sacrificed after 4 h, soluble fraction of brain homogenates
# Text: (§1) To determine whether acute administration of an Aβ42 lowering agent would reduce Aβ42 levels in vivo, non-transgenic rodents, e.g. mice or rats were used. Alternatively, two to three month old Tg2576 mice expressing APP695 containing the “Swedish” variant can be used or a transgenic mouse model developed by Dr. Fred Van Leuven (K.U. Leuven, Belgium) and co-workers, with neuron-specific expression of a clinical mutant of the human amyloid precursor protein [V717I] […] Young transgenic mice have high levels of Aβ in the brain but no detectable Aβ deposition. At approximately 6-8 months of age, the transgenic mice start to display spontaneous, progressive accumulation of β-amyloid (Aβ) in the brain, eventually resulting in amyloid plaques within the subiculum, hippocampus and cortex. Animals treated with the Aβ42 lowering agent were examined and compared to those untreated or treated with vehicle and brain levels of soluble Aβ42 and total Aβ would be quantitated by standard techniques, for example, using ELISA.
# (§2) A typical protocol for measuring Aβ42 lowering in vivo is shown but it is only one of many variations that could be used to optimize the levels of detectable Aβ. For example, Aβ42 lowering compounds were formulated in 20% of Captisol® (a sulfobutyl ether of β-cyclodextrin) in water or 20% hydroxypropyl β cyclodextrin. The Aβ42 lowering agents were administered as a single oral dose or by any acceptable route of administration to overnight fasted animals. After 4 h, the animals were sacrificed and Aβ42 levels were analysed.
# (§3) Blood was collected by decapitation and exsanguinations in EDTA-treated collection tubes. Blood was centrifuged at 1900 g for 10 minutes (min) at 4° C. and the plasma recovered and flash frozen for later analysis. The brain was removed from the cranium and hindbrain. The cerebellum was removed and the left and right hemisphere were separated. The left hemisphere was stored at −18° C. for quantitative analysis of test compound levels. The right hemisphere was rinsed with phosphate-buffered saline (PBS) buffer and immediately frozen on dry ice and stored at −80° C. until homogenization for biochemical assays.
# (§4) All samples were sonicated for 30 seconds on ice at 20% power output (pulse mode). Homogenates were centrifuged at 221.300×g for 50 min. The resulting high speed supernatants were then transferred to fresh tubes and were optionally further purified before the next step. A portion of the supernatant was neutralized with 10% 0.5 M Tris-HCl and this was used to quantify Aβtotal.
# (§5) The obtained supernatants were purified with Water Oasis HLB reverse phase columns (Waters Corp., Milford, Mass.) to remove non-specific immunoreactive material from the brain lysates prior subsequent Aβ detection. Using a vacuum manifold, all solutions were passed through the columns at a rate of approximately 1 ml per min, so the vacuum pressure was adjusted accordingly throughout the procedure. Columns were preconditioned with 1 ml of 100% MeOH, before equilibration with 1 ml of H2O, Non-neutralized brain lysates were loaded onto the columns. The loaded samples were then washed twice with the first wash performed with 1 ml of 5% MeOH, and the second wash with 1 ml of 30% MeOH. Finally, the Aβ was eluted from the columns and into 100×30 mm glass tubes, with a solution of 90% MeOH with 2% NH4OH. The eluate was then transferred into 1.5 ml tubes and concentrated in a speed-vac concentrator on high heat for about 1.5-2 h at 70° C. The concentrated Aβ was then resuspended in UltraCULTURE General Purpose Serum-Free Medium (Cambrex Corp., Walkersville, Md.) plus Protease Inhibitors added.
# To quantify the amount of Aβ42 in the soluble fraction of the brain homogenates, commercially available Enzyme-Linked-Immunosorbent-Assay (ELISA) kits were used (e.g. Innotest® β-Amyloid(1-42), Innogenetics N.V., Ghent, Belgium). The Aβ42 ELISA was performed using the plate provided with the kit only.
# Aβtotal [4] = assay: In vivo efficacy Method 1: brain soluble Aβtotal by ELISA; design: species or system mouse; details: Table 4a, single oral dose, overnight fasted animals, sacrificed after 4 h, soluble fraction of brain homogenates
# Text: as §1, §2, §3, §4
# as §5, with “added. […]” for “added.”
# Aβ42 [5] = assay: Screening for γ-secretase-modulating activity, Method 2: Aβ42 Alphalisa on SKNBE2 cell supernatant; format: cell-based; details: Method 2, Table 3c, SKNBE2 cells carrying APP 695 wild type, overnight incubation
# How it was run: (§6)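 SKNBE2 cells expressing wild-type APP695, plated at 10^4 cells/well with compound at several concentrations and incubated overnight at 37° C. Aβ42 (C-terminal capture, N-terminal biotinylated detection) and Aβtotal (N-terminal/4G8 pair) measured in supernatant by AlphaLISA. IC50 from 4-parameter fit of percent of compound-free control.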
# Aβtotal [6] = assay: Screening for γ-secretase-modulating activity, Method 2: Aβtotal Alphalisa on SKNBE2 cell supernatant; format: cell-based; details: Method 2, Table 3c, SKNBE2 cells carrying APP 695 wild type, overnight incubation
# How it was run: as §6
# [7] = Homo sapiens, Table 3a, 18 hours, XLfit, top/bottom fixed to 100 and 0, hill slope 1
# [8] = Homo sapiens, Table 3b, non-linear regression of % of control, averaged IC50 values
# [9] = Table 3a, 18 hours, XLfit, top/bottom fixed to 100 and 0, hill slope 1
# [10] = Table 3b, non-linear regression of % of control, averaged IC50 values
Compound,IC50 (Aβ42 [1]; [7]) [nM],IC50 (Aβ42 [1]; [8]) [nM],IC50 (Aβtotal [2]; [7]) [nM],IC50 (Aβtotal [2]; [8]) [nM],Aβ42 (% Ctrl) _Mean (Aβ42 [3]) [% Ctrl],Aβtotal (% Ctrl) _Mean (Aβtotal [4]) [% Ctrl],IC50 (Aβ42 [1]; [9]) [nM],IC50 (Aβ42 [1]; [10]) [nM],IC50 (Aβtotal [2]; [9]) [nM],IC50 (Aβtotal [2]; [10]) [nM],IC50 (Aβ42 [5]) [nM],IC50 (Aβtotal [6]) [nM],IC50 (Aβ42 [5]; Homo sapiens) [nM],IC50 (Aβtotal [6]; Homo sapiens) [nM]
COc1cc(Nc2cccc3c2nc(-c2ccc(F)cc2F)n3C)ccc1-n1cnc(C)c1 [Compound 3],13,13,> 1000,> 3000,46,87,–,–,–,–,–,–,–,–
Cc1cn(-c2ccc(Nc3cccc4c3nc(-c3ccc(F)cc3)n4C)nc2)cn1 [Compound 5],31,30,> 3000,> 3000,62,94,–,–,–,–,–,–,–,–
Cc1cn(-c2ccc(Nc3cccc4c3nc(-c3ccc(F)cc3)n4C)cc2)cn1 [Compound 7],22,23,> 1000,> 3000,58,89,–,–,–,–,–,–,–,–
COc1cc(Nc2cccc3oc(CC(C)C)nc23)ccc1-n1cnc(C)c1 [Compound 18],101,102,> 5000,> 10000,81,95,–,–,–,–,–,–,–,–
COc1cc(Nc2cccc3c2nc(C2CCCCC2)n3C)ccc1-n1cnc(C)c1 [Compound 38],–,–,–,–,72,101,104,126,> 3000,> 3000,–,–,–,–
COc1cc(Nc2cccc3c2nc(N2CC(C)OC(C)C2)n3C)ccc1-n1cnc(C)c1 (stereo not drawn) [Compound 44],–,–,–,–,91,101,135,135,> 5000,> 5000,–,–,–,–
COc1cc(Nc2cccc3[nH]c(-c4ccccc4C)nc23)ccc1-n1cnc(C)c1 [Compound 45],15,13,> 1000,> 3000,93,94,–,–,–,–,–,–,–,–
COCCn1c(-c2cccc(OC)c2)nc2c(Nc3ccc(-n4cnc(C)c4)c(OC)c3)cccc21.Cl.Cl [Compound 54],–,–,–,–,71,96,20,25,> 1000,> 3000,–,–,–,–
Cc1ncn(-c2ccc(Nc3cccc4c3nc(-c3ccc(F)cc3)n4C)cn2)n1 [Compound 70],–,–,–,–,64,99,50,37,> 3000,> 3000,–,–,–,–
COc1cc(Nc2cccc3c2nc(-c2ccc(F)cc2)n3C)ccc1-n1cnc(Br)c1 [Compound 71],–,–,–,–,88,102,28,28,> 1000,> 3000,–,–,–,–
Cc1ncn(-c2ccc(Nc3cccc4c3nc(-c3ccc(F)cc3)n4C(C)C)cc2F)n1.Cl.Cl [Compound 74],–,–,–,–,86,99,65,59,> 3000,> 3000,–,–,–,–
Cc1cn(-c2ccc(Nc3nccc4c3nc(-c3ccc(F)cc3)n4C)cc2F)cn1 [Compound 137],–,–,–,–,–,–,–,50,–,> 3000,21,> 10000,–,–
COc1nc(Nc2nc(C)cc3c2nc(-c2ccccc2Cl)n3C)ccc1-n1cnc(C)c1 [Compound 149],–,–,–,–,–,–,–,316,–,> 10000,195,9770,–,–
COc1nc(Nc2nc(C)cc3c2nc(-c2ccc(F)cc2)n3C)ccc1-n1cnc(C)c1 [Compound 150],–,–,–,–,–,–,–,437,–,6920,145,4900,–,–
COc1nc(Nc2cc(F)cc3c2nc(-c2ccccc2Cl)n3C)ccc1-n1cnc(C)c1 [Compound 151],–,–,–,–,–,–,–,5,–,> 3000,11,4900,–,–
COc1cccc(-c2nc3c(Nc4ccc(-n5cnc(C)n5)c(OC)c4)nc(C)cc3n2C)c1 [Compound 163],–,–,–,–,–,–,–,48,–,> 3000,29,4270,–,–
COCCCc1cc(Nc2ccc(-n3cnc(C)n3)c(OC)c2)c2nc(-c3ccc(F)cc3)n(C)c2n1 [Compound 208],–,35,–,> 3000,–,–,–,–,–,–,–,–,91,> 10000
